Ends that are not written are not given here.

Assay [1] deals with T1, streptavidin (Streptomyces avidinii, UniProt P22629). It counts as binding. The conditions noted are these: peptide-streptavidin complex, association constant.
Assay [2] deals with T1, streptavidin. The conditions noted are these: peptide-streptavidin complex, experimentally observed binding constant; cited from earlier work.

T1 sequence (P22629 25-183): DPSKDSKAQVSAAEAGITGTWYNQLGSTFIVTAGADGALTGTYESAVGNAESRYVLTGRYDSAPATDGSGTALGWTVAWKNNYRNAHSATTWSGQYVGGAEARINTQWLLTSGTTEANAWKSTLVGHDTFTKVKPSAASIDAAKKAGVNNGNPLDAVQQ

Regarding AECHPQFCIEGRK, the “Observed KA” value at streptavidin [1] is 2.13 µM⁻¹. The Kd (usually the constant that tells how readily two partners part at equilibrium) at streptavidin [2] is 0.47 µM.
Consider AECHPQFNCIEGRK, for which the “Observed KA” value at streptavidin [1] amounted to 0.14 µM⁻¹. In addition, at streptavidin [2], the Kd was 7 µM.
Take AECHPQFPCIEGRK: the “Observed KA” value on streptavidin [1] came out at 1.08 µM⁻¹. Also, the Kd on streptavidin [2] was 0.93 µM.
For AECHPQGPPCIEGRK, the “Observed KA” value at streptavidin [1] is 4.35 µM⁻¹. Also, the Kd at streptavidin [2] is 0.23 µM.
As for AHPQFGAEK, at streptavidin [1], the “Observed KA” value came to 0.005 µM⁻¹. Further, the Kd at streptavidin [2] was 204 µM.
For the substance AHPQFPAEK, the “Observed KA” value at streptavidin [1] was determined as 0.007 µM⁻¹. Moreover, the Kd on streptavidin [2] was 136 µM.
Turning to FSHPQNT, the “Observed KA” value on streptavidin [1] was found to be 0.008 µM⁻¹.
HDHPQNL: on streptavidin [1], the “Observed KA” value was 0.004 µM⁻¹. In addition, the Kd on streptavidin [2] is 282 µM.
Take RCCHPQCGMAEEC: the “Observed KA” value at streptavidin [1] came out at 0.45 µM⁻¹. On streptavidin [2], the dissociation constant Kd was 2.3 µM.
In the case of RCCHPQCGMVEEC, the “Observed KA” value at streptavidin [1] was found to be 3.3 µM⁻¹. Further, the Kd at streptavidin [2] is 1.3 µM.
Turning to RCCHPQFEPCMGC, the “Observed KA” value on streptavidin [1] amounted to 3.0 µM⁻¹. At streptavidin [2], the Kd was 0.33 µM.
Consider “cyclo-(AHPQFGAE)K (AHPQFGAEK; also: cyclic, ring closure not given here)”, for which the “Observed KA” value with streptavidin [1] came out at 0.05 µM⁻¹. Also, in the assay with streptavidin [2], the Kd is 19 µM.
With “cyclo-(AHPQFPAE)K (AHPQFPAEK; also: cyclic, ring closure not given here)”, the “Observed KA” value with streptavidin [1] worked out at 7.69 µM⁻¹. Further, the Kd with streptavidin [2] is 0.13 µM.
Turning to “cyclo-(AQYGHFAE)K (AQYGHFAEK; also: cyclic, ring closure not given here)”, in the assay with streptavidin [1], the “Observed KA” value is 0.0002 µM⁻¹. Moreover, the Kd with streptavidin [2] was over 5000 µM.
On to cyclo-CHPQFC, for which the “Observed KA” value on streptavidin [1] came to 3.70 µM⁻¹. In addition, the Kd on streptavidin [2] was 0.27 µM.
Consider “cyclo-CHPQGPPC (also: cyclic, closure type not given here)”, for which the “Observed KA” value with streptavidin [1] turned out to be 1.49 µM⁻¹. In addition, the Kd with streptavidin [2] is 0.67 µM.
